Assay results published in the supplement of paper PMC10307832.

Assays:
Assay in all cases: relative viability (nuclei count vs DMSO), 5 days (fraction); higher = more cells survive
Ponatinib + Trametinib = compound: Cc1ccc(C(=O)Nc2ccc(CN3CCN(C)CC3)c(C(F)(F)F)c2)cc1C#Cc1cnc2cccnn12 [Ponatinib] + CC(=O)Nc1cccc(-n2c(=O)n(C3CC3)c(=O)c3c(Nc4ccc(I)cc4F)n(C)c(=O)c(C)c32)c1 [Trametinib] (partner 0.02 µM)
Outline: (§1)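 After 5 days of treatment, lung cancer cells in 1536-well plates were fixed and stained in a single step (final 0.05% Triton X-100, 1% formaldehyde, 1 ug/ml Hoechst) and their nuclei counted on 4× images. Treatment had been applied by pin tool the day after seeding as one drug alone or as a fixed anchor-drug dose with five library-drug doses (not always all listed) in √10 steps. Relative viability is the nuclei count of treated wells divided by that of vehicle wells, and values are medians of duplicate plates.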

Pazopanib + Phenformin = compound: Cc1ccc(Nc2nccc(N(C)c3ccc4c(C)n(C)nc4c3)n2)cc1S(N)(=O)=O [Pazopanib] + N=C(N)NC(=N)NCCc1ccccc1 [Phenformin] (partner 250 µM)
Outline: as §1

Ponatinib + AZD7762 = compound: Cc1ccc(C(=O)Nc2ccc(CN3CCN(C)CC3)c(C(F)(F)F)c2)cc1C#Cc1cnc2cccnn12 [Ponatinib] + NC(=O)Nc1cc(-c2cccc(F)c2)sc1C(=O)N[C@H]1CCCNC1 [AZD7762] (partner 0.2 µM)
Outline: as §1

Ponatinib + Pictilisib = compound: Cc1ccc(C(=O)Nc2ccc(CN3CCN(C)CC3)c(C(F)(F)F)c2)cc1C#Cc1cnc2cccnn12 [Ponatinib] + CS(=O)(=O)N1CCN(Cc2cc3nc(-c4cccc5[nH]ncc45)nc(N4CCOCC4)c3s2)CC1 [Pictilisib] (partner 1 µM)
Outline: as §1

Cell Line	relative viability (Ponatinib + Trametinib; first compound 0.002 µM)	relative viability (Ponatinib + Trametinib; first compound 0.006325 µM)	relative viability (Ponatinib + Trametinib; first compound 0.06325 µM)	relative viability (Ponatinib + Trametinib; first compound 0.2 µM)	relative viability (Pazopanib + Phenformin; first compound 0.01 µM)	relative viability (Pazopanib + Phenformin; first compound 0.03162 µM)	relative viability (Pazopanib + Phenformin; first compound 0.1 µM)	relative viability (Pazopanib + Phenformin; first compound 0.3162 µM)	relative viability (Pazopanib + Phenformin; first compound 1 µM)	relative viability (Ponatinib + AZD7762; first compound 0.002 µM)	relative viability (Ponatinib + AZD7762; first compound 0.006325 µM)	relative viability (Ponatinib + AZD7762; first compound 0.06325 µM)	relative viability (Ponatinib + AZD7762; first compound 0.2 µM)	relative viability (Ponatinib + Pictilisib; first compound 0.002 µM)	relative viability (Ponatinib + Pictilisib; first compound 0.006325 µM)	relative viability (Ponatinib + Pictilisib; first compound 0.06325 µM)	relative viability (Ponatinib + Pictilisib; first compound 0.2 µM)
NCI-H1755	0.755	0.841	0.761	0.763	0.552	0.636	0.673	0.65	0.671	0.409	0.379	0.381	0.362	0.502	0.535	0.505	0.391
HCC-78	0.684	0.673	0.808	0.638	0.531	0.696	0.626	0.635	0.622	0.52	0.537	0.669	0.647	0.203	0.216	0.214	0.232
IA-LM														0.428	0.386	0.572	0.442
NCI-H441	0.389	0.435	0.485	0.382	0.741	0.911	0.811	0.986	1.01	1.18	1.19	1.35	1.14	0.608	0.48	0.49	0.313
COR-L23	0.526	0.593	0.372	0.387	0.44	0.459	0.41	0.463	0.493					0.768	0.753	1.04	0.703
NCI-H2023	0.555	0.625	0.64	0.523	0.421	0.43	0.398	0.444	0.434					0.261	0.292	0.298	0.212
COR-L 105	0.429	0.479	0.473	0.457	0.446	0.553	0.52	0.724	0.636					0.424	0.379	0.443	0.567
SK-LU-1	0.469	0.554	0.393	0.347	0.505	0.627	0.537	0.571	0.575					0.518	0.63	0.523	0.377
NCI-H661	0.544	0.556	0.524	0.453	0.275	0.281	0.255	0.272	0.316					0.404	0.406	0.389	0.482
